From patent US7482338B2 (priority 2003, dated 2009)
pKd: −log10 of the molar value.

Target: α7 nAChR subtype (Rattus norvegicus, UniProt Q05941)
Format: binding
Details: read-out: KD of radioligand (saturation curve, one site model)

Chain of α7 nAChR subtype (Q05941 23-502 limits assumed): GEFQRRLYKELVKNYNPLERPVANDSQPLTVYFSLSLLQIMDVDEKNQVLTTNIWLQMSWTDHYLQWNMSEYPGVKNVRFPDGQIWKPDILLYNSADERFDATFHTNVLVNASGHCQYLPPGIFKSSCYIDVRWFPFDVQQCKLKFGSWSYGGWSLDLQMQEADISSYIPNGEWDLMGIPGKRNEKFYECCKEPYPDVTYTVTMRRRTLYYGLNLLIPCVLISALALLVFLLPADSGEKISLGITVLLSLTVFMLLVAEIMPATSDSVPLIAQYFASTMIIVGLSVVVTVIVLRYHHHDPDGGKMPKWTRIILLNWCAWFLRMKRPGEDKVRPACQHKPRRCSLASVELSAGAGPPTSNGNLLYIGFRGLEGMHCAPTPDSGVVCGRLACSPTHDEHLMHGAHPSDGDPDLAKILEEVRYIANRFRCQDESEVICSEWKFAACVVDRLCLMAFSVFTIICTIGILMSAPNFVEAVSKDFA

In the case of [^125I]-α-Bungarotoxin [[^125I]-α-BTX], the pKd was 8.78.
